Measured values reported in PubChem BioAssay (NCI).
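Five compound concentrations were applied to cells in 96-well plates for 48 hours; endpoints were derived by simple linear interpolation of the resulting dose-response curve. GI50 marks 50% less growth. TGI denotes the concentration required for complete inhibition of growth.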

What was measured:
Assay in all cases: NCI tumour cell line growth inhibition, 48 h
UACC-62 melanoma = tested on: UACC-62 melanoma
ACHN renal = tested on: ACHN renal
SF-539 CNS = tested on: SF-539 CNS
HS 578T breast = tested on: HS 578T breast
HOP-92 NSCLC = tested on: HOP-92 NSCLC
OVCAR-8 ovarian = tested on: OVCAR-8 ovarian
SK-MEL-28 melanoma = tested on: SK-MEL-28 melanoma
A498 renal = tested on: A498 renal
SK-MEL-5 melanoma = tested on: SK-MEL-5 melanoma
MDA-MB-435 = tested on: MDA-MB-435
COLO 205 colon = tested on: COLO 205 colon
MDA-N = tested on: MDA-N
MDA-MB-231 breast = tested on: MDA-MB-231 breast
BT-549 breast = tested on: BT-549 breast
HL-60(TB) leukemia = tested on: HL-60(TB) leukemia
NCI-H23 lung = tested on: NCI-H23 lung
NCI-H522 lung = tested on: NCI-H522 lung
M14 melanoma = tested on: M14 melanoma
NCI-H460 lung = tested on: NCI-H460 lung
NCI/ADR-RES ovarian = tested on: NCI/ADR-RES ovarian
SNB-75 CNS = tested on: SNB-75 CNS
IGROV1 ovarian = tested on: IGROV1 ovarian
SK-MEL-2 melanoma = tested on: SK-MEL-2 melanoma
DU-145 prostate = tested on: DU-145 prostate
RPMI-8226 leukemia = tested on: RPMI-8226 leukemia
OVCAR-5 ovarian = tested on: OVCAR-5 ovarian
SNB-19 CNS = tested on: SNB-19 CNS
MALME-3M melanoma = tested on: MALME-3M melanoma
SF-295 CNS = tested on: SF-295 CNS
OVCAR-3 ovarian = tested on: OVCAR-3 ovarian
786-0 renal = tested on: 786-0 renal
SW-620 colon = tested on: SW-620 colon
RXF 393 renal = tested on: RXF 393 renal
KM12 colon = tested on: KM12 colon
HCT-15 colon = tested on: HCT-15 colon
HT29 colon = tested on: HT29 colon
LOX IMVI melanoma = tested on: LOX IMVI melanoma
NCI-H226 lung = tested on: NCI-H226 lung
PC-3 prostate = tested on: PC-3 prostate
OVCAR-4 ovarian = tested on: OVCAR-4 ovarian
MCF7 breast = tested on: MCF7 breast
A549 NSCLC = tested on: A549 NSCLC
CAKI-1 renal = tested on: CAKI-1 renal
HOP-62 NSCLC = tested on: HOP-62 NSCLC
HCT-116 colon = tested on: HCT-116 colon
U251 CNS = tested on: U251 CNS
K-562 leukemia = tested on: K-562 leukemia
T-47D breast = tested on: T-47D breast
UO-31 renal = tested on: UO-31 renal
CCRF-CEM leukemia = tested on: CCRF-CEM leukemia
SN12C renal = tested on: SN12C renal
SR leukemia = tested on: SR leukemia
HCC-2998 colon = tested on: HCC-2998 colon
UACC-257 melanoma = tested on: UACC-257 melanoma
MOLT-4 leukemia = tested on: MOLT-4 leukemia
SK-OV-3 ovarian = tested on: SK-OV-3 ovarian
TK-10 renal = tested on: TK-10 renal
SF-268 CNS = tested on: SF-268 CNS

N[C@@H]1CCN(c2c(F)cc3c(=O)c(C(=O)O)cn4c3c2Oc2cc3c(ccc5ccccc53)cc2-4)C1
TGI (UACC-62 melanoma): 26.7 µM
TGI (ACHN renal): > 41.7 µM
TGI (SF-539 CNS): 28.5 µM
TGI (HS 578T breast): > 100 µM
TGI (HOP-92 NSCLC): 7.56 µM
TGI (OVCAR-8 ovarian): 18.1 µM
TGI (SK-MEL-28 melanoma): > 93.2 µM
TGI (A498 renal): > 44.8 µM
TGI (SK-MEL-5 melanoma): > 40 µM
TGI (MDA-MB-435): > 100 µM
TGI (COLO 205 colon): > 100 µM
TGI (MDA-N): > 100 µM
TGI (MDA-MB-231 breast): > 100 µM
TGI (BT-549 breast): > 100 µM
TGI (HL-60(TB) leukemia): > 59.9 µM
TGI (NCI-H23 lung): > 100 µM
TGI (NCI-H522 lung): 31.6 µM
TGI (M14 melanoma): > 100 µM
TGI (NCI-H460 lung): 7.01 µM
TGI (NCI/ADR-RES ovarian): > 100 µM
TGI (SNB-75 CNS): > 100 µM
TGI (IGROV1 ovarian): > 100 µM
TGI (SK-MEL-2 melanoma): > 78 µM
TGI (DU-145 prostate): > 100 µM
TGI (RPMI-8226 leukemia): > 100 µM
TGI (OVCAR-5 ovarian): 97 µM
TGI (SNB-19 CNS): > 100 µM
TGI (MALME-3M melanoma): 23 µM
TGI (SF-295 CNS): > 100 µM
TGI (OVCAR-3 ovarian): 34.5 µM
TGI (786-0 renal): > 100 µM
TGI (SW-620 colon): > 100 µM
GI50 (RXF 393 renal): 3.78 µM
TGI (RXF 393 renal): > 100 µM
TGI (KM12 colon): > 100 µM
TGI (HCT-15 colon): > 100 µM
TGI (HT29 colon): > 100 µM
TGI (LOX IMVI melanoma): > 63.7 µM
TGI (NCI-H226 lung): > 100 µM
TGI (PC-3 prostate): > 28.2 µM
TGI (OVCAR-4 ovarian): > 100 µM
TGI (MCF7 breast): > 100 µM
TGI (A549 NSCLC): > 100 µM
TGI (CAKI-1 renal): > 77.5 µM
TGI (HOP-62 NSCLC): > 100 µM
TGI (HCT-116 colon): 18.5 µM
TGI (U251 CNS): 5.04 µM
TGI (K-562 leukemia): > 23.3 µM
TGI (T-47D breast): 31.3 µM
TGI (UO-31 renal): > 100 µM
TGI (CCRF-CEM leukemia): 234 nM
TGI (SN12C renal): > 100 µM

O=C(NNC(=S)NC1CCCCC1)C12CC3CC(CC(C3)C1)C2
TGI (UACC-62 melanoma): > 100 µM
TGI (ACHN renal): > 100 µM
TGI (SF-539 CNS): > 100 µM
TGI (HS 578T breast): > 100 µM
TGI (OVCAR-8 ovarian): > 100 µM
TGI (SK-MEL-28 melanoma): > 100 µM
TGI (A498 renal): > 100 µM
TGI (SR leukemia): > 100 µM
TGI (SK-MEL-5 melanoma): > 100 µM
TGI (MDA-MB-435): > 100 µM
TGI (COLO 205 colon): > 100 µM
TGI (MDA-N): > 100 µM
TGI (MDA-MB-231 breast): > 100 µM
TGI (BT-549 breast): > 100 µM
TGI (HL-60(TB) leukemia): > 100 µM
TGI (NCI-H23 lung): > 100 µM
TGI (NCI-H522 lung): > 100 µM
TGI (HCC-2998 colon): > 100 µM
TGI (M14 melanoma): > 100 µM
TGI (NCI-H460 lung): > 100 µM
TGI (NCI/ADR-RES ovarian): > 100 µM
TGI (SNB-75 CNS): > 100 µM
TGI (IGROV1 ovarian): > 100 µM
TGI (SK-MEL-2 melanoma): > 100 µM
TGI (DU-145 prostate): > 100 µM
TGI (UACC-257 melanoma): > 100 µM
TGI (RPMI-8226 leukemia): > 100 µM
TGI (OVCAR-5 ovarian): > 100 µM
TGI (SNB-19 CNS): > 100 µM
TGI (MALME-3M melanoma): > 100 µM
TGI (SF-295 CNS): > 100 µM
TGI (OVCAR-3 ovarian): > 100 µM
TGI (786-0 renal): > 100 µM
TGI (SW-620 colon): > 100 µM
TGI (RXF 393 renal): > 100 µM
TGI (KM12 colon): > 100 µM
TGI (HCT-15 colon): > 100 µM
TGI (HT29 colon): > 100 µM
TGI (LOX IMVI melanoma): > 100 µM
TGI (MOLT-4 leukemia): > 100 µM
TGI (NCI-H226 lung): > 100 µM
TGI (PC-3 prostate): > 100 µM
TGI (SK-OV-3 ovarian): > 100 µM
TGI (OVCAR-4 ovarian): > 100 µM
TGI (MCF7 breast): > 100 µM
TGI (A549 NSCLC): > 100 µM
TGI (CAKI-1 renal): > 100 µM
TGI (HOP-62 NSCLC): > 100 µM
TGI (HCT-116 colon): > 100 µM
TGI (U251 CNS): > 100 µM
TGI (K-562 leukemia): > 100 µM
TGI (T-47D breast): > 100 µM
TGI (TK-10 renal): > 100 µM
TGI (UO-31 renal): > 100 µM
TGI (CCRF-CEM leukemia): > 100000 nM
TGI (SF-268 CNS): > 100 µM
TGI (SN12C renal): > 100 µM
